Test results published in US8293751B2, “1,2,3-trisubstituted aryl and heteroaryl derivatives as modulators of metabolism and the prophylaxis and treatment of disorders related thereto such as diabetes and hyperglycemia” (Arena Pharmaceuticals, Inc., priority 2003, dated 2012).
Entries after “also recorded” stand apart in the source; their conditions may differ.

Tests used:
RUP3 = target: T1, RUP3 (Homo sapiens, UniProt Q8TDV5); assay: 96-Well Cyclic AMP Membrane Assay for RUP3 (Membrane Cyclase Assay); format: biochemical; conditions: RUP3 membranes, cAMP Flashplate
T1 construct: seen in the listing only (N); seen in the listing only (C); expressed in transfected cells
T1 sequence (Q8TDV5 with tags, fused parts or gaps): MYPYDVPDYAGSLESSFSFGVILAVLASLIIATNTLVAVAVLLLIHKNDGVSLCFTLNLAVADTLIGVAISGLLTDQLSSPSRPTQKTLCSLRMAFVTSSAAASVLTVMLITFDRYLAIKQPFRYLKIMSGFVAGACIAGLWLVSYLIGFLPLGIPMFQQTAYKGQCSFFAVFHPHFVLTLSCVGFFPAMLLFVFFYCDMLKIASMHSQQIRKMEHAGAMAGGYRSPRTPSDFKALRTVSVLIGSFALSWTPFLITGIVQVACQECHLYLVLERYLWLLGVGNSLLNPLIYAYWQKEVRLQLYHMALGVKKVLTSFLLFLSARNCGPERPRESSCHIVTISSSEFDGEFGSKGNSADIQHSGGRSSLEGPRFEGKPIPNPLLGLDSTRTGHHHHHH
Procedure: 96-Well Cyclic AMP Membrane Assay for RUP3
Binding Buffer—filter through […] Nalgene filter and keep in refrigerator. All buffers and membranes should be kept cold (in ice bucket) while performing assay. • 20 mM Hepes, pH7.4 • 1 mM MgCl2 • 100 mM NaCl • 2× Regeneration Buffer (make in binding buffer): • 20 mM Phosphocreatine (1.02 gm/200 ml binding buffer) • 20 units Creatine phosphokinase (4 mg/200 ml) • 20 uM GTP (make up 10.46 mg/ml in binding buffer and add 200 ul/200 ml) • 0.2 mM ATP (22.04 mg/200 ml) • […] IBMX (44.4 mg IBMX dissolved in 1 ml 100% DMSO first and then add the entire amount to 200 ml of buffer).
Regeneration buffer can be aliquotted into 40-45 ml portions (in 50 ml sterile tubes) and kept frozen for up to 2 months. Simply put the tube in a beaker with room temperature water to thaw out the regeneration buffer on the day of the assay. […]
IC50s or EC50s are done in triplicate. […] The membranes are kept in ice all the time, and a polytron (Brinkmann polytron, model #PT-3100) is used (setting 6-7, for 15-20 seconds) to obtain a homogeneous membrane suspension.) Protein concentration is determined by Bradford protein assay kit using instructions given in the kit, using the standard supplied with the kit as a reference. […]

[1] = tested on: db mice (C57BL/KsOlahsd-Leprdb, diabetic); assay: Acute response of db mice to RUP3 agonist (blood glucose); format: in vivo; conditions: male db mice; 60 mg/kg, oral gavage; FIG. 5B
Procedure: B. […] Male db mice (C57BL/KsOlahsd-Leprdb, diabetic, Harlan) at age of 10 weeks were randomly grouped (n=6) to receive vehicle (oral gavage), Compound B70 (60 mg/kg, oral gavage), or Ex-4 (1 μg/kg, intraperitoneally). After compound administration, food was removed and blood glucose levels were determined at indicated times as shown in FIG. 5B. Reduction in blood glucose at each time point was expressed as percentage of original glucose levels, averaged from six animals for each group.

C57bl/6N mice = assay: Oral glucose tolerance test (oGTT) in mice; format: in vivo; conditions: male C57bl/6N mice fasted 18 hours; p.o. 30 min before oral dextrose 5 g/kg; FIG. 5A
Procedure: A. Oral Glucose Tolerance Test (oGTT) (FIG. 5A).
Male C57bl/6N mice at age of 8 weeks were fasted for 18 hours and randomly grouped (n=11) to receive a RUP3 agonist (Compound B70) at indicated doses, or with control extendin-4 (ex-4, 1 μg/kg), a GLP-1 peptide analog known to stimulate glucose-dependent insulin secretion. Compound B70 was delivered orally via a gavage needle (p.o. volume at 100 μl). Control Ex-4 was delivered intraperitoneally. Thirty minutes after administration of test compound and control ex4, mice were administered orally with dextrose at 5 g/kg dose. Levels of blood glucose were determined at the indicated time points using Glucometer Elite XL (Bayer).

## O=[N+]([O-])c1c(Nc2ccc(-n3cncn3)cc2)ncnc1N1CCC(Sc2ccccn2)CC1 [Compound B70, {5-Nitro-6-[4-(pyridin-2-ylsulfanyl)-piperidin-1-yl]-pyrimidin-4-yl}-(4-[1,2,4]triazol-1-yl-phenyl)-amine]
RUP3
  IC50: 129 nM
[1]
  blood glucose levels compared to vehicle control: significantly reduces glucose levels compared to vehicle control
C57bl/6N mice
  blood glucose after glucose challenge (oGTT): lowered blood glucose in a dose-dependent manner; also recorded: in a dose-dependent manner on the lowering of blood glucose after glucose challenge
